In US20250066370A1, “BICYCLIC TRIAZINE DERIVATIVES FOR THE TREATMENT OF CANCER” (DEUTSCHES KREBSFORSCHUNGSZENTRUM, priority 2022, published 2025):

Experiments:
[1] = biological target: CDK9/CyclinT1 (Homo sapiens (Human), UniProt P50750); test: CDK9/CycT1 high ATP kinase assay (TR-FRET); format: biochemical; details: 2 mM ATP (high ATP); median; read-out: CDK9/CyclinT1, 2 mM ATP (high ATP), IC50 - [mol/l] (median)
Description: CDK9/CycT1-inhibitory activity of compounds of the present invention at a high ATP concentration after preincubation of enzyme and test compounds was quantified employing the CDK9/CycT1 TR-FRET assay as described in the following paragraphs.
Recombinant full-length His-tagged human CDK9 and CycT1, expressed in insect cells and purified by Ni-NTA affinity chromatography, were purchased from Life Technologies (Cat. No PV4131). As substrate for the kinase reaction biotinylated peptide biotin-Ttds-YISPLKSPYKISEG (C-terminus in amide form) was used which can be purchased e.g. form the company JERINI peptide technologies (Berlin, Germany).
For the assay 50 nanoL of a 100 fold concentrated solution of the test compound in DMSO was pipetted into either a black low volume 384 well microtiter plate or a black 1536 well microtiter plate (both Greiner Bio-One, Frickenhausen, Germany), 2 microL of a solution of CDK9/CycT1 in aqueous assay buffer [50 millimol/L Tris/HCl PH 8.0, 10 millimol/L MgCl2, 1.0 millimol/L dithiothreitol, 0.1 millimol/L sodium ortho-vanadate, 0.01% (v/v) Nonidet-P40 (Sigma)] were added and the mixture was incubated for 15 min at 22° C. to allow pre-binding of the test compounds to the enzyme before the start of the kinase reaction. Then the kinase reaction was started by the addition of 3 microL of a solution of adenosine-tri-phosphate (ATP, 3.3 millimol/L=>final conc. in the 5 microL assay volume is 2 millimol/L) and substrate (1.25 micromol/L=>final conc. in the 5 microL assay volume is 0.75 micromol/L) in assay buffer and the resulting mixture was incubated for a reaction time of 25 min at 22° C. The concentration of CDK9/CycT1 was adjusted depending of the activity of the enzyme lot and was chosen appropriate to have the assay in the linear range, typical concentrations were in the range of 0.5 microg/ml. The reaction was stopped by the addition of 3 microL of a solution of TR-FRET detection reagents (0.33 micromol/L streptavidine-XL665 [Cisbio Bioassays, Codolet, France] and 1.67 nanomol/L anti-RB (pSer807/pSer811)-antibody from BD Pharmingen [#558389] and 2 nanomol/L LANCE EU-W1024 labeled anti-mouse IgG antibody [Perkin-Elmer, product no. AD0077]) in an aqueous EDTA-solution (167 millimol/L EDTA, 0.2% (w/v) bovine serum albumin in 100 millimol/L HEPES pH 7.5).
The resulting mixture was incubated 1 h at 22° C. to allow the formation of complex between the phosphorylated biotinylated peptide and the detection reagents. Subsequently the amount of phosphorylated substrate was evaluated by measurement of the resonance energy transfer from the Eu-chelate to the streptavidine-XL. Therefore, the fluorescence emissions at 620 nm and 665 nm after excitation at 350 nm was measured in a TR-FRET reader, e.g. a Pherastar (BMG Labtechnologies, Offenburg, Germany) or a Viewlux (Perkin-Elmer). The ratio of the emissions at 665 nm and at […] was taken as the measure for the amount of phosphorylated substrate. The data were normalised (enzyme reaction without inhibitor=0% inhibition, all other assay components but no enzyme=100% inhibition).

[2] = tested on: BRCA1 mRNA expression in MDA-MB-231 cells; test: qRT-PCR assay: inhibition of BRCA1 mRNA expression in MDA-MB-231 cells; format: cell-based; details: Homo sapiens, 24 h exposure, BRCA1 normalised to GAPDH, median, read-out: RTqPCR-MDA-MB-231, IC50 [mol/l], BRCA1 (median)
Description: 3. qRT-PCR Assay: BRCA1, ATR, MCL1 in MDA-MB-231, CAL-120
Tissue cultured human MDA-MB-231 human breast cancer cells were plated in 500 microL per well at 200,000 cells/well in a 24 well microtiter plate. After 24 h, the cells were exposed continuously for 24 h to test substances (substances were added with Tecan HP D300 Dispenser). RNA was prepared using Qiagen RNeasy MiniKit (#74106), RNA was quantified using a NanoDrop Equipment, and 600 nano grams of RNA was converted to cDNA using a SuperScript VILO kit (Thermofisher #11755050) followed by qPCR amplification. BRCA1 and ATR gene expression was measured by RT-qPCR and normalised to GAPDH housekeeping gene expression. qPCR primer sets have been purchased from Thermo Fisher Scientific/Applied Biosystems: BRCA1, #Hs 01556193; ATR. #Hs 00992123: GAPDH. #Hs 03929097.

[3] = tested on: MDA-MB-231, human breast cancer cells; test: Proliferation assay MDA-MB-231 (crystal violet); format: cell-based; details: 96 h, MDA-MB-231 parental cells, 4 days, median, read-out: Prolif-MDA MB-231, IC50 - [mol/l] (median)
Description: Human tumour cells were originally obtained from the American Type Culture Collection (ATCC), or from the Deutsche Sammlung von Mikroorganismen und Zellkulturen (DSMZ, German Collection of Microorganisms and Cell Cultures). Cultivated tumour cells (CAL-120, human breast adenocarcinoma cells, DSMZ ACC-459; MDA-MB-231, human breast cancer cells, ATCC HTB-26) were plated at a density of 4,000 cells/well in a 96-well multitier plate in 200 microL of their respective growth medium supplemented 10% fetal calf serum. After 24 hours, the cells of one plate (zero-point plate) were stained with crystal violet (see below), while the medium of the other plates was supplemented with the test substances in various concentrations (0 micromol/L, as well as in the range of 0.01-10 micromol/L; the final concentration of the solvent dimethyl sulfoxide was adjusted to 0.1%) using a Tecan HP D300 Digital Dispenser. The cells were incubated for 4 days in the presence of test substances. Cell proliferation was determined by staining the cells with crystal violet: the cells were fixed by adding 20 microL/measuring point of an 11% glutaric aldehyde solution for 15 minutes at room temperature. After three washing cycles of the fixed cells with water, the plates were dried at room temperature. The cells were stained by adding 100 microL/measuring point of a 0.1% crystal violet solution (pH 3.0). After three washing cycles of the stained cells with water, the plates were dried at room temperature. The dye was dissolved by adding 100 microL/measuring point of a 10% acetic acid solution. The extinction was determined by photometry at a wavelength of 595 nm. The change of cell number, in percent, was calculated by normalization of the measured values to the extinction values of the zero-point plate (=0%) and the extinction of the untreated (0 μM) cells (=100%). The IC50 values (inhibitory concentration at 50% of maximal effect) were determined by means of a 4 parameter fit.

Chain of CDK9/CyclinT1 (P50750 whole entry): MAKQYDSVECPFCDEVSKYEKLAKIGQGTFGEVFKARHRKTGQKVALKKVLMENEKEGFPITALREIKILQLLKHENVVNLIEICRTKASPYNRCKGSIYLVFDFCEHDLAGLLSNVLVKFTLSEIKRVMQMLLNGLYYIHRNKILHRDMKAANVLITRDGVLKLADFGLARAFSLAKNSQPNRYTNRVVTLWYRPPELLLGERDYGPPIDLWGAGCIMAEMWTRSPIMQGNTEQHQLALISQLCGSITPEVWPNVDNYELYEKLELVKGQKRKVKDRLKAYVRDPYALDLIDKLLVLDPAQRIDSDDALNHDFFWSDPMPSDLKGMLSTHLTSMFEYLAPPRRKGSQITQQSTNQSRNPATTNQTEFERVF
Chain of CDK9/CyclinT1 (O60563 whole entry partner): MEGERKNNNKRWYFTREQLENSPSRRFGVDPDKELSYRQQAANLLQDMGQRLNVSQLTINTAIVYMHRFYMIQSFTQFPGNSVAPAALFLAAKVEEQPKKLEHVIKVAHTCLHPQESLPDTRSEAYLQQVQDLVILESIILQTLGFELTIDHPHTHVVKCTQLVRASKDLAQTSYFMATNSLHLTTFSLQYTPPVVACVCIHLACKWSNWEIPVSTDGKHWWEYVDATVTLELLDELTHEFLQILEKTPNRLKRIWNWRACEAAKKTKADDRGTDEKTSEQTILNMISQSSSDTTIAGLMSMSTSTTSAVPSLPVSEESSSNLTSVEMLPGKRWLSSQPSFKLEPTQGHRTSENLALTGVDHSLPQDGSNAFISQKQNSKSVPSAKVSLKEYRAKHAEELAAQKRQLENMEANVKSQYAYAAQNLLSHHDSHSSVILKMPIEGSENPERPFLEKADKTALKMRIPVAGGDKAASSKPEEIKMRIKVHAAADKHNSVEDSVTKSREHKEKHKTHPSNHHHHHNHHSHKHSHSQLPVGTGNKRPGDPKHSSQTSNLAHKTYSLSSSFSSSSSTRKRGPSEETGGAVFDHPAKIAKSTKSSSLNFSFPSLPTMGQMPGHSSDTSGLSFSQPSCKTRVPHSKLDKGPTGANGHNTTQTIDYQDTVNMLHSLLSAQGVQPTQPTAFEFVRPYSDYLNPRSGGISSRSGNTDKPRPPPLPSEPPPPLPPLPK

| IC50 [1] [nM] | Compound | IC50 [2] [nM] | IC50 [3] [nM] |
| --- | --- | --- | --- |
| > 20000 | FC(F)(F)Oc1ccc(-c2cnc(CNc3nc(N4CCOCC4)nc4c(C(F)(F)F)cnn34)[nH]2)cc1 [Example 10, 2-(morpholin-4-yl)-N-({5-[4-(trifluoromethoxy)phenyl]-1H-imidazol-2-yl}methyl)-8-(trifluoromethyl)pyrazolo[1,5-a][1,3,5]triazin-4-amine] | 37.3 | 123 |
| > 20000 | FC(F)(F)c1ccc(-c2cnc(CNc3nc(N4CCOCC4)nn4c(C(F)(F)F)cnc34)[nH]2)cn1 [Example 12, 2-(morpholin-4-yl)-7-(trifluoromethyl)-N-({5-[6-(trifluoromethyl)pyridin-3-yl]-1H-imidazol-2-yl}methyl)imidazo[2,1-f][1,2,4]triazin-4-amine] | 7.57 | 22.5 |
| 3050 | COc1ccc(-c2cnc(CNc3nc(N4CCOCC4)nc4c(C(F)(F)F)cnn34)[nH]2)cn1 [Example 21, N-{[5-(6-methoxypyridin-3-yl)-1H-imidazol-2-yl]methyl}-2-(morpholin-4-yl)-8-(trifluoromethyl)pyrazolo[1,5-a][1,3,5]triazin-4-amine] | 98.8 | 98.3 |

The next lines start with the compound.

| Compound | IC50 [1] [nM] | IC50 [2] [nM] | IC50 [3] [nM] |
| --- | --- | --- | --- |
| FC(F)(F)Oc1ccc(-c2nnc(CNc3nc(N4CCOCC4)nn4c(C(F)(F)F)cnc34)[nH]2)cn1 [Example 19, 2-(morpholin-4-yl)-N-({5-[6-(trifluoromethoxy)pyridin-3-yl]-4H-1,2,4-triazol-3-yl}methyl)-7-(trifluoromethyl)imidazo[2,1-f][1,2,4]triazin-4-amine] | 506 | 34.5 | 37.5 |
| FC(F)(F)c1ccc(-c2nnc(CNc3nc(N4CCOCC4)nn4c(C(F)(F)F)cnc34)[nH]2)cn1 [Example 20, 2-(morpholin-4-yl)-7-(trifluoromethyl)-N-({5-[6-(trifluoromethyl)pyridin-3-yl]-4H-1,2,4-triazol-3-yl}methyl)imidazo[2,1-f][1,2,4]triazin-4-amine] | 847 | 53.8 | 52.9 |
| Cc1ccc(-c2nnc(CNc3nc(N4CCOCC4)nn4c(C(F)(F)F)cnc34)[nH]2)cn1 [Example 23, N-{[5-(6-methylpyridin-3-yl)-4H-1,2,4-triazol-3-yl]methyl}-2-(morpholin-4-yl)-7-(trifluoromethyl)imidazo[2,1-f][1,2,4]triazin-4-amine] | 624 | 102 | 75.8 |
